# Calls of active or inactive are those of the source. No cut-off for these calls is given here.
# Assays:
# Escherichia coli [1] = assay: Antibacterial activity against Escherichia coli JW5503 after 16 to 18 hrs by broth microdilution method; format: functional
# Escherichia coli [2] = assay: Antibacterial activity against Escherichia coli HB101 after 16 to 18 hrs by broth microdilution method; format: functional
# Escherichia coli [3] = assay: Antibacterial activity against Escherichia coli HB101 after 16 to 18 hrs in presence of PAbetaN by broth microdilution method; format: functional
# Escherichia coli [4] = assay: Antibacterial activity against novobiocin-resistant Escherichia coli CC5 harboring GyrB Arg136His mutant after 16 to 18 hrs in presence of PAbetaN by broth microdilution method; format: functional
# Escherichia coli [5] = assay: Antibacterial activity against novobiocin-resistant Escherichia coli CC7 harboring GyrB Arg136Ser mutant after 16 to 18 hrs in presence of PAbetaN by broth microdilution method; format: functional
# Escherichia coli [6] = assay: Antibacterial activity against novobiocin-resistant Escherichia coli LE316 harboring GyrB Arg136Val mutant after 16 to 18 hrs in presence of PAbetaN by broth microdilution method; format: functional
# Escherichia coli [7] = assay: Antibacterial activity against Escherichia coli JW5503 transfected with empty vector in presence of IPTG induction after 16 hrs by broth microdilution method; format: functional; conditions: JW5503, 16 h
# Escherichia coli [8] = assay: Antibacterial activity against Escherichia coli JW5503 transfected with empty vector in absence of IPTG induction after 16 hrs by broth microdilution method; format: functional; conditions: JW5503, 16 h
# Escherichia coli [9] = assay: Antibacterial activity against Escherichia coli JW5503 overexpressing gyrB in presence of IPTG induction after 16 hrs by broth microdilution method; format: functional; conditions: JW5503, 16 h
# Escherichia coli [10] = assay: Antibacterial activity against Escherichia coli JW5503 overexpressing gyrA/gyrB in presence of IPTG induction after 16 hrs by broth microdilution method; format: functional; conditions: JW5503, 16 h
# Escherichia coli [11] = assay: Antibacterial activity against Escherichia coli JW5503 overexpressing gyrB at 51 ug/ml in presence of IPTG induction after 16 hrs by broth microdilution method; format: functional, organism-based
# [12] = Ratio of MIC for Escherichia coli BW25113 to MIC for Escherichia coli JW5503; format: functional
# Escherichia coli [13] = assay: Antibacterial activity against Escherichia coli BW25113 after 16 to 18 hrs by broth microdilution method; format: functional
# Escherichia coli [14] = assay: Antibacterial activity against Escherichia coli MC4100 after 16 to 18 hrs by broth microdilution method; format: functional
# Escherichia coli [15] = assay: Antibacterial activity against Escherichia coli BAS849 after 16 to 18 hrs by broth microdilution method; format: functional
# Escherichia coli [16] = assay: Antibacterial activity against Escherichia coli UPEC after 16 to 18 hrs by broth microdilution method; format: functional
# Acinetobacter baumannii = assay: Antibacterial activity against Acinetobacter baumannii clinical isolate after 16 to 18 hrs by broth microdilution method; format: functional
# Edwardsiella tarda = assay: Antibacterial activity against Edwardsiella tarda clinical isolate after 16 to 18 hrs by broth microdilution method; format: functional
# Klebsiella aerogenes = assay: Antibacterial activity against Enterobacter aerogenes clinical isolate after 16 to 18 hrs by broth microdilution method; format: functional
# Klebsiella pneumoniae = assay: Antibacterial activity against Klebsiella pneumoniae after 16 to 18 hrs by broth microdilution method; format: functional
# Morganella morganii = assay: Antibacterial activity against Morganella morganii clinical isolate after 16 to 18 hrs by broth microdilution method; format: functional
# Pseudomonas aeruginosa = assay: Antibacterial activity against Pseudomonas aeruginosa after 16 to 18 hrs by broth microdilution method; format: functional
# Salmonella typhimurium = assay: Antibacterial activity against Salmonella enterica subsp. enterica serovar Typhimurium after 16 to 18 hrs by broth microdilution method; format: functional
# Shigella flexneri = assay: Antibacterial activity against Shigella flexneri after 16 to 18 hrs by broth microdilution method; format: functional
# Bacillus subtilis = assay: Antibacterial activity against Bacillus subtilis after 16 to 18 hrs by broth microdilution method; format: functional
# Bacillus cereus = assay: Antibacterial activity against Bacillus cereus after 16 to 18 hrs by broth microdilution method; format: functional
# Enterococcus faecalis = assay: Antibacterial activity against Enterococcus faecalis after 16 to 18 hrs by broth microdilution method; format: functional
# Enterococcus faecium = assay: Antibacterial activity against Enterococcus faecium after 16 to 18 hrs by broth microdilution method; format: functional
# Staphylococcus aureus = assay: Antibacterial activity against Staphylococcus aureus subsp. aureus clinical isolate after 16 to 18 hrs by broth microdilution method; format: functional
# [17] = test system: Staphylococcus saprophyticus; assay: Antibacterial activity against Staphylococcus saprophyticus clinical isolate after 16 to 18 hrs by broth microdilution method; format: functional
# [18] = test system: Staphylococcus epidermidis; assay: Antibacterial activity against Staphylococcus epidermidis clinical isolate after 16 to 18 hrs by broth microdilution method; format: functional
# Streptococcus agalactiae = assay: Antibacterial activity against Streptococcus agalactiae after 16 to 18 hrs by broth microdilution method; format: functional
# Streptococcus pyogenes = assay: Antibacterial activity against Streptococcus pyogenes after 16 to 18 hrs by broth microdilution method; format: functional
# Escherichia coli [19] = assay: Antibacterial activity against gyramide-resistant Escherichia coli JW5503 harboring GyrA Pro35Thr mutant after 16 to 18 hrs by broth microdilution method; format: functional
# Escherichia coli [20] = assay: Antibacterial activity against gyramide-resistant Escherichia coli JW5503 harboring GyrA Ser97Pro mutant after 16 to 18 hrs by broth microdilution method; format: functional
# Escherichia coli [21] = assay: Antibacterial activity against gyramide-resistant Escherichia coli JW5503 harboring GyrA Phe96Leu mutant after 16 to 18 hrs by broth microdilution method; format: functional
# Escherichia coli [22] = assay: Antibacterial activity against gyramide-resistant Escherichia coli JW5503 harboring GyrA His45Tyr mutant after 16 to 18 hrs by broth microdilution method; format: functional
# Escherichia coli [23] = assay: Antibacterial activity against gyramide-resistant Escherichia coli JW5503 harboring GyrB Thr508Met mutant after 16 to 18 hrs by broth microdilution method; format: functional
# Escherichia coli [24] = assay: Antibacterial activity against ciprofloxacin-resistant Escherichia coli JW5503 harboring GyrA Asp87Gly mutant after 16 to 18 hrs by broth microdilution method; format: functional
# Escherichia coli [25] = assay: Antibacterial activity against ciprofloxacin-resistant Escherichia coli JW5503 harboring GyrA Asp87Tyr mutant after 16 to 18 hrs by broth microdilution method; format: functional
# Escherichia coli [26] = assay: Antibacterial activity against ciprofloxacin-resistant Escherichia coli JW5503 harboring GyrB Ser464Phe mutant after 16 to 18 hrs by broth microdilution method; format: functional
# Escherichia coli [27] = assay: Ratio of MIC for gyramide-resistant Escherichia coli JW5503 harboring GyrA Pro35Thr mutant to MIC for Escherichia coli JW5503; format: functional
# Escherichia coli [28] = assay: Ratio of MIC for gyramide-resistant Escherichia coli JW5503 harboring GyrA Ser97Pro mutant to MIC for Escherichia coli JW5503; format: functional
# Escherichia coli [29] = assay: Ratio of MIC for gyramide-resistant Escherichia coli JW5503 harboring GyrA Phe96Leu mutant to MIC for Escherichia coli JW5503; format: functional
# Escherichia coli [30] = assay: Ratio of MIC for gyramide-resistant Escherichia coli JW5503 harboring GyrA His45Tyr mutant to MIC for Escherichia coli JW5503; format: functional
# Escherichia coli [31] = assay: Ratio of MIC for gyramide-resistant Escherichia coli JW5503 harboring GyrB Ser464Phe mutant to MIC for Escherichia coli JW5503; format: functional
# Escherichia coli [32] = assay: Ratio of MIC for ciprofloxacin-resistant Escherichia coli JW5503 harboring GyrA Asp87Tyr mutant to MIC for Escherichia coli JW5503; format: functional
# Escherichia coli [33] = assay: Ratio of MIC for ciprofloxacin-resistant Escherichia coli JW5503 harboring GyrA Ser83Leu mutant to MIC for Escherichia coli JW5503; format: functional
# Escherichia coli [34] = assay: Ratio of MIC for ciprofloxacin-resistant Escherichia coli JW5503 harboring GyrA Asp87Gly mutant to MIC for Escherichia coli JW5503; format: functional
# Escherichia coli [35] = assay: Ratio of MIC for ciprofloxacin-resistant Escherichia coli JW5503 harboring GyrB Ser464Phe mutant to MIC for Escherichia coli JW5503; format: functional
# Escherichia coli [36] = assay: Ratio of MIC for novobiocin-resistant Escherichia coli CC5 harboring GyrB Arg136His mutant to MIC for Escherichia coli HB101; format: functional
# Escherichia coli [37] = assay: Ratio of MIC for novobiocin-resistant Escherichia coli LE316 harboring GyrB Arg136Val mutant to MIC for Escherichia coli HB101; format: functional
# Escherichia coli [38] = assay: Ratio of MIC for novobiocin-resistant Escherichia coli CC7 harboring GyrB Arg136Ser mutant to MIC for Escherichia coli HB101; format: functional
# DNA gyrase = DNA gyrase (Escherichia coli, UniProt P0AES4+P0AES6); assay: Inhibition of Escherichia coli DNA gyrase assessed as inhibition of pUC19 supercoiling after 30 mins by agarose gel electrophoresis; format: protein-complex assay
# [39] = molecular target: DNA gyrase (Escherichia coli) (UniProt P0AES6+P0AES4); assay: Inhibition of Escherichia coli DNA gyrase ATPase activity up to 100 uM using DNA as substrate after 60 mins; format: protein-complex assay
smiles,measurement,setting,value
CO[C@@H]1[C@@H](OC(N)=O)[C@@H](O)[C@H](Oc2ccc3c(O)c(NC(=O)c4ccc(O)c(CC=C(C)C)c4)c(=O)oc3c2C)OC1(C)C [NOVOBIOCIN],MIC,Escherichia coli [1],0.8 µg/mL
same,MIC,Escherichia coli [2],> 100 µg/mL
same,MIC,Escherichia coli [3],3.2 µg/mL
same,MIC,Escherichia coli [4],102 µg/mL
same,MIC,Escherichia coli [5],6.4 µg/mL
same,MIC,Escherichia coli [6],12.8 µg/mL
same,MIC,Escherichia coli [7],0.4 µg/mL
same,MIC,Escherichia coli [8],0.4 µg/mL
same,MIC,Escherichia coli [9],6.3 µg/mL
same,MIC,Escherichia coli [10],3.2 µg/mL
same,Activity,Escherichia coli [11],inactive
Cc1ccc(F)cc1S(=O)(=O)N[C@@H]1CCN(Cc2ccc(-c3ccccc3)cc2)C1,Ratio,[12],> 1600
Cc1ccc(C#N)cc1S(=O)(=O)N[C@@H]1CCN(Cc2ccc(-c3ccccc3)cc2)C1,MIC,Escherichia coli [13],8 µg/mL
same,MIC,Escherichia coli [1],0.1 µg/mL
same,MIC,Escherichia coli [14],8 µg/mL
same,MIC,Escherichia coli [15],0.5 µg/mL
same,MIC,Escherichia coli [16],> 16 µg/mL
same,MIC,Acinetobacter baumannii,> 16 µg/mL
same,MIC,Edwardsiella tarda,8 µg/mL
same,MIC,Klebsiella aerogenes,> 16 µg/mL
same,MIC,Klebsiella pneumoniae,> 16 µg/mL
same,MIC,Morganella morganii,> 16 µg/mL
same,MIC,Pseudomonas aeruginosa,> 16 µg/mL
same,MIC,Salmonella typhimurium,2 µg/mL
same,MIC,Shigella flexneri,4 µg/mL
same,MIC,Bacillus subtilis,> 16 µg/mL
same,MIC,Bacillus cereus,> 16 µg/mL
same,MIC,Enterococcus faecalis,> 16 µg/mL
same,MIC,Enterococcus faecium,> 16 µg/mL
same,MIC,Staphylococcus aureus,> 16 µg/mL
same,MIC,[17],> 16 µg/mL
same,MIC,[18],> 16 µg/mL
same,MIC,Streptococcus agalactiae,> 16 µg/mL
same,MIC,Streptococcus pyogenes,> 16 µg/mL
same,MIC,Escherichia coli [19],5.4 µg/mL
same,MIC,Escherichia coli [20],22 µg/mL
same,MIC,Escherichia coli [21],2.7 µg/mL
same,MIC,Escherichia coli [22],22 µg/mL
same,MIC,Escherichia coli [23],1.3 µg/mL
same,MIC,Escherichia coli [24],0.2 µg/mL
same,MIC,Escherichia coli [25],0.1 µg/mL
same,MIC,Escherichia coli [26],0.4 µg/mL
same,MIC,Escherichia coli [2],1 µg/mL
same,MIC,Escherichia coli [6],0.2 µg/mL
same,Ratio,[12],80
same,Ratio,Escherichia coli [27],10 - 100
same,Ratio,Escherichia coli [28],10 - 100
same,Ratio,Escherichia coli [29],10 - 100
same,Ratio,Escherichia coli [30],10 - 100
same,Ratio,Escherichia coli [31],10 - 100
same,Ratio,Escherichia coli [32],2 - 4
same,Ratio,Escherichia coli [33],2 - 4
same,Ratio,Escherichia coli [34],2 - 4
same,Ratio,Escherichia coli [35],2 - 4
same,Ratio,Escherichia coli [36],2 - 4
same,Ratio,Escherichia coli [37],2 - 4
same,Ratio,Escherichia coli [38],2 - 4
same,IC50,DNA gyrase,47 nM
same,inhibition,[39],inactive

# From ChEMBL document CHEMBL4261496, “Targeting quinolone- and aminocoumarin-resistant bacteria with new gyramide analogs that inhibit DNA gyrase” (Medchemcomm, 2017)
